Here are results for one compound from paper PMC5218480 (PLoS ONE, 2017).

This experiment concerns MV-4-11 cells. The experiment is described as follows: Gene expression microarray analysis (Affymetrix PrimeView) and GSEA. Format: cell-based, human. Details: RFU PODN (11730768_x_at) / Fold change /veh PODN (11730768_x_at) / RFU LINC00158 (11744669_a_at) / Fold change /veh LINC00158 (11744669_a_at) / RFU DUSP10 (11751237_a_at) / Fold change /veh DUSP10 (11751237_a_at) / RFU ID3 (11757404_x_at) / Fold change /veh ID3 (11757404_x_at) / RFU PLEKHG5 (11737974_s_at) / Fold change /veh PLEKHG5 (11737974_s_at) / RFU LRRC4B (11730491_at) / Fold change /veh LRRC4B (11730491_at) / RFU GIMAP4 (11747438_a_at) / Fold change /veh GIMAP4 (11747438_a_at) / RFU KRT8 (11758183_x_at) / Fold change /veh KRT8 (11758183_x_at) / RFU CNN1 (11734310_a_at) / Fold change /veh CNN1 (11734310_a_at) / RFU VPS37D (11726825_at) / Fold change /veh VPS37D (11726825_at) / RFU C10orf10 (11716522_x_at) / Fold change /veh C10orf10 (11716522_x_at) / RFU KIR2DL2 /// KIR2DL4 /// KIR2DL5A /// KIR2DL5B /// KIR2DS1 /// KIR2DS2 /// KIR2DS3 /// KIR2DS4 /// KIR3DL3 /// KIR3DL3 /// KIR3DS1 (11738374_at) / Fold change /veh KIR2DL2 /// KIR2DL4 /// KIR2DL5A /// KIR2DL5B /// KIR2DS1 /// KIR2DS2 /// KIR2DS3 /// KIR2DS4 /// KIR3DL3 /// KIR3DL3 /// KIR3DS1 (11738374_at) / RFU C1QL1 (11718748_at) / Fold change /veh C1QL1 (11718748_at) / RFU TMPRSS4 (11747572_a_at) / Fold change /veh TMPRSS4 (11747572_a_at) / RFU HAMP (11756126_x_at) / Fold change /veh HAMP (11756126_x_at) / RFU RNFT2 (11725882_a_at) / Fold change /veh RNFT2 (11725882_a_at) / RFU NR4A2 (11747474_a_at) / Fold change /veh NR4A2 (11747474_a_at) / RFU ABCC12 (11746883_a_at) / Fold change /veh ABCC12 (11746883_a_at) / RFU TMEM136 (11760407_x_at) / Fold change /veh TMEM136 (11760407_x_at) / RFU CLDN22 /// WWC2 (11732394_at) / Fold change /veh CLDN22 /// WWC2 (11732394_at) / RFU HLA-DPB1 (11760878_x_at) / Fold change /veh HLA-DPB1 (11760878_x_at) / RFU SPINT1 (11716480_a_at) / Fold change /veh SPINT1 (11716480_a_at) / RFU GAP43 (11754022_s_at) / Fold change /veh GAP43 (11754022_s_at) / RFU A4GNT (11735810_at) / Fold change /veh A4GNT (11735810_at) / RFU PRB3 (11715151_x_at) / Fold change /veh PRB3 (11715151_x_at) / RFU TUBB4B (11761932_at) / Fold change /veh TUBB4B (11761932_at) / RFU CAPN14 (11732068_a_at) / Fold change /veh CAPN14 (11732068_a_at) / RFU TMCC2 (11721928_a_at) / Fold change /veh TMCC2 (11721928_a_at) / RFU IRGQ (11745062_a_at) / Fold change /veh IRGQ (11745062_a_at) / RFU FAM174B (11720279_a_at) / Fold change /veh FAM174B (11720279_a_at) / RFU TMPRSS4 (11748680_a_at) / Fold change /veh TMPRSS4 (11748680_a_at) / RFU FAM212B (11763350_a_at) / Fold change /veh FAM212B (11763350_a_at) / RFU PLEKHG5 (11743358_a_at) / Fold change /veh PLEKHG5 (11743358_a_at) / RFU ZSCAN30 (11745921_a_at) / Fold change /veh ZSCAN30 (11745921_a_at) / RFU CMKLR1 (11741424_a_at) / Fold change /veh CMKLR1 (11741424_a_at) / RFU LOC101060620 /// MAPK8IP1 (11723275_at) / Fold change /veh LOC101060620 /// MAPK8IP1 (11723275_at) / RFU SPTSSB (11747773_x_at) / Fold change /veh SPTSSB (11747773_x_at) / RFU PRSS12 (11739890_at) / Fold change /veh PRSS12 (11739890_at) / RFU BIN1 (11741810_x_at) / Fold change /veh BIN1 (11741810_x_at) / RFU WNT11 (11732464_a_at) / Fold change /veh WNT11 (11732464_a_at) / RFU C10orf10 (11716521_a_at) / Fold change /veh C10orf10 (11716521_a_at) / RFU C5orf56 (11738089_at) / Fold change /veh C5orf56 (11738089_at) / RFU CYB561 (11721691_x_at) / Fold change /veh CYB561 (11721691_x_at) / RFU ANKRD19P (11752326_a_at) / Fold change /veh ANKRD19P (11752326_a_at) / RFU OR2T12 /// OR2T33 /// OR2T8 (11738714_s_at) / Fold change /veh OR2T12 /// OR2T33 /// OR2T8 (11738714_s_at) / RFU VCAN (11748164_a_at) / Fold change /veh VCAN (11748164_a_at) / RFU JSRP1 (11732532_at) / Fold change /veh JSRP1 (11732532_at) / RFU KRTAP10-11 (11738290_x_at) / Fold change /veh KRTAP10-11 (11738290_x_at) / RFU MYO3A (11730013_a_at) / Fold change /veh MYO3A (11730013_a_at) / RFU EBF3 (11725865_a_at) / Fold change /veh EBF3 (11725865_a_at) / RFU CAMK2N1 (11719241_x_at) / Fold change /veh CAMK2N1 (11719241_x_at) / RFU C5orf56 (11738088_a_at) / Fold change /veh C5orf56 (11738088_a_at) / RFU OLFML3 (11715873_a_at) / Fold change /veh OLFML3 (11715873_a_at) / RFU LOC100653217 /// NTM (11731650_a_at) / Fold change /veh LOC100653217 /// NTM (11731650_a_at) / RFU MAPK11 (11762145_a_at) / Fold change /veh MAPK11 (11762145_a_at) / RFU FIZ1 (11724087_x_at) / Fold change /veh FIZ1 (11724087_x_at) / RFU OASL (11726364_x_at) / Fold change /veh OASL (11726364_x_at) / RFU SOX15 (11748057_x_at) / Fold change /veh SOX15 (11748057_x_at) / RFU CD79A (11719716_a_at) / Fold change /veh CD79A (11719716_a_at) / RFU HIST1H1D (11736915_at) / Fold change /veh HIST1H1D (11736915_at) / RFU CASKIN2 (11723855_a_at) / Fold change /veh CASKIN2 (11723855_a_at) / RFU LOC730098 (11760151_x_at) / Fold change /veh LOC730098 (11760151_x_at) / RFU OR4N2 (11742367_at) / Fold change /veh OR4N2 (11742367_at) / RFU PRRT2 (11749266_a_at) / Fold change /veh PRRT2 (11749266_a_at) / RFU SNX32 (11753110_a_at) / Fold change /veh SNX32 (11753110_a_at) / RFU CDHR5 (11726645_a_at) / Fold change /veh CDHR5 (11726645_a_at) / RFU RCAN1 (11760418_a_at) / Fold change /veh RCAN1 (11760418_a_at) / RFU FAM167A (11723789_a_at) / Fold change /veh FAM167A (11723789_a_at) / RFU FAM26E (11764081_at) / Fold change /veh FAM26E (11764081_at) / RFU ISYNA1 (11749810_s_at) / Fold change /veh ISYNA1 (11749810_s_at) / RFU ACY1 (11761880_at) / Fold change /veh ACY1 (11761880_at) / RFU 11764098_at / Fold change /veh 11764098_at / RFU SAMD14 (11745864_x_at) / Fold change /veh SAMD14 (11745864_x_at) / RFU NPB (11741838_a_at) / Fold change /veh NPB (11741838_a_at) / RFU TMPRSS6 (11731388_a_at) / Fold change /veh TMPRSS6 (11731388_a_at) / RFU KRTAP10-2 (11738614_at) / Fold change /veh KRTAP10-2 (11738614_at) / RFU ARHGAP8 /// PRR5-ARHGAP8 (11727945_x_at) / Fold change /veh ARHGAP8 /// PRR5-ARHGAP8 (11727945_x_at) / RFU KRTAP5-7 /// NADSYN1 (11734609_at) / Fold change /veh KRTAP5-7 /// NADSYN1 (11734609_at) / RFU RASL12 (11751679_a_at) / Fold change /veh RASL12 (11751679_a_at) / RFU CDKN2B (11736163_a_at) / Fold change /veh CDKN2B (11736163_a_at) / RFU PRF1 (11729649_at) / Fold change /veh PRF1 (11729649_at) / RFU, ZNF638 /// ZNF638-IT1 / Fold change vs veh, ZNF638 /// ZNF638-IT1 / RFU, PANK3 / Fold change vs veh, PANK3 / RFU, SH3YL1 / Fold change vs veh, SH3YL1 / RFU, ZEB2 / Fold change vs veh, ZEB2 / RFU, NRIP1 / Fold change vs veh, NRIP1 / RFU, PTTG1IP / Fold change vs veh, PTTG1IP / RFU, CAPN2 / Fold change vs veh, CAPN2 / RFU, MED14 / Fold change vs veh, MED14 / RFU, SNORA58 / Fold change vs veh, SNORA58 / RFU, C1orf63 / Fold change vs veh, C1orf63 / RFU, LRRFIP1 / Fold change vs veh, LRRFIP1 / RFU, NDUFAF7 / Fold change vs veh, NDUFAF7 / RFU, SLC12A2 / Fold change vs veh, SLC12A2 / RFU, IBTK / Fold change vs veh, IBTK / RFU, ESF1 / Fold change vs veh, ESF1 / Fold change vs veh, TMEM50B / RFU, TAOK1 / Fold change vs veh, TAOK1 / RFU, ACBD3 / Fold change vs veh, ACBD3 / RFU, TMA16 / Fold change vs veh, TMA16 / RFU, RWDD3 / Fold change vs veh, RWDD3 / RFU, BCAT1 / Fold change vs veh, BCAT1 / RFU, EDEM3 / Fold change vs veh, EDEM3 / RFU, TMEM33 / Fold change vs veh, TMEM33 / RFU, WDR75 / Fold change vs veh, WDR75 / RFU, AHCTF1 / Fold change vs veh, AHCTF1 / RFU, TFRC / Fold change vs veh, TFRC / RFU, ZDHHC17 / Fold change vs veh, ZDHHC17 / RFU, NOM1 / Fold change vs veh, NOM1 / RFU, ARL8B / Fold change vs veh, ARL8B / RFU, ZBTB11 / Fold change vs veh, ZBTB11 / RFU, TAMM41 / Fold change vs veh, TAMM41 / RFU, KIAA1704 /// LOC100996395 / Fold change vs veh, KIAA1704 /// LOC100996395 / RFU, ING1 / Fold change vs veh, ING1 / RFU, TRMT61B / Fold change vs veh, TRMT61B / RFU, FUBP3 / Fold change vs veh, FUBP3 / RFU, TP53 / Fold change vs veh, TP53 / RFU, TNKS2 / Fold change vs veh, TNKS2 / RFU, ZFP14 / Fold change vs veh, ZFP14 / RFU, ACTR2 / Fold change vs veh, ACTR2 / RFU, PPP3R1 / Fold change vs veh, PPP3R1 / RFU, PIK3R1 / Fold change vs veh, PIK3R1 / RFU, HNRNPA1 / Fold change vs veh, HNRNPA1 / RFU, RNF170 / Fold change vs veh, RNF170 / RFU, ZNF28 / Fold change vs veh, ZNF28 / RFU, RNGTT / Fold change vs veh, RNGTT / RFU, OGT / Fold change vs veh, OGT / RFU, BRD1 / Fold change vs veh, BRD1 / RFU, MARS / Fold change vs veh, MARS / RFU, ZNF655 / Fold change vs veh, ZNF655 / RFU, FAHD1 / Fold change vs veh, FAHD1 / RFU, BDP1 / Fold change vs veh, BDP1 / RFU, LRRCC1 / Fold change vs veh, LRRCC1 / RFU, ARID1A / Fold change vs veh, ARID1A / RFU, ZNF146 / Fold change vs veh, ZNF146 / RFU, ZNF330 / Fold change vs veh, ZNF330 / RFU, GPN3 / Fold change vs veh, GPN3 / RFU, C9orf123 / Fold change vs veh, C9orf123 / RFU, N4BP2L2 / Fold change vs veh, N4BP2L2 / RFU, ARFIP1 / Fold change vs veh, ARFIP1 / RFU, FAM179B / Fold change vs veh, FAM179B / RFU, BCL10 / Fold change vs veh, BCL10 / RFU, UHRF1BP1L / Fold change vs veh, UHRF1BP1L / RFU, BET1 / Fold change vs veh, BET1 / RFU, CNOT2 / Fold change vs veh, CNOT2 / RFU, ZNF268 / Fold change vs veh, ZNF268 / Fold change vs veh, ZNF507 / RFU, DGCR2 / Fold change vs veh, DGCR2 / RFU, WDSUB1 / Fold change vs veh, WDSUB1 / Fold change vs veh, HSP90B1 /// MIR3652 / RFU, ADSS / Fold change vs veh, ADSS / RFU, GK / Fold change vs veh, GK / RFU, ZNF148 / Fold change vs veh, ZNF148 / RFU, TAF9 / Fold change vs veh, TAF9 / RFU, SLC1A5 / Fold change vs veh, SLC1A5 / RFU, SLMO2 / Fold change vs veh, SLMO2 / RFU, ABCC4 / Fold change vs veh, ABCC4 / RFU, LOC101060439 /// RAP1B / Fold change vs veh, LOC101060439 /// RAP1B / RFU, RFX7 / Fold change vs veh, RFX7 / RFU, GTPBP10 / Fold change vs veh, GTPBP10 / RFU, CNEP1R1 / Fold change vs veh, CNEP1R1 / RFU, BIVM-ERCC5 /// ERCC5 / Fold change vs veh, BIVM-ERCC5 /// ERCC5 / RFU, ILF3 / Fold change vs veh, ILF3 / RFU 11762660_at / Fold change /veh 11762660_at / RFU VCAN (11757783_s_at) / Fold change /veh VCAN (11757783_s_at) / RFU DDX43 (11728927_at) / Fold change /veh DDX43 (11728927_at) / RFU KRT8 (11758188_x_at) / Fold change /veh KRT8 (11758188_x_at) / RFU NKD1 (11759106_at) / Fold change /veh NKD1 (11759106_at) / RFU SRD5A1 (11742802_a_at) / Fold change /veh SRD5A1 (11742802_a_at) / RFU TPSAB1 /// TPSB2 (11721975_s_at) / Fold change /veh TPSAB1 /// TPSB2 (11721975_s_at) / RFU GSTM3 (11746129_a_at) / Fold change /veh GSTM3 (11746129_a_at) / RFU IL23R (11737362_x_at) / Fold change /veh IL23R (11737362_x_at) / RFU TMEM51 (11727254_a_at) / Fold change /veh TMEM51 (11727254_a_at) / RFU PIWIL2 (11732686_x_at) / Fold change /veh PIWIL2 (11732686_x_at) / RFU ORM1 (11744905_x_at) / Fold change /veh ORM1 (11744905_x_at) / RFU CCDC152 (11743942_at) / Fold change /veh CCDC152 (11743942_at) / RFU ECM1 (11717891_a_at) / Fold change /veh ECM1 (11717891_a_at) / RFU IL23R (11748794_a_at) / Fold change /veh IL23R (11748794_a_at) / RFU TNFAIP8L3 (11732012_x_at) / Fold change /veh TNFAIP8L3 (11732012_x_at) / RFU MBOAT4 (11741988_at) / Fold change /veh MBOAT4 (11741988_at) / RFU 11764193_at / Fold change /veh 11764193_at / RFU TMEM53 (11763286_at) / Fold change /veh TMEM53 (11763286_at) / RFU MAGEB2 (11727129_at) / Fold change /veh MAGEB2 (11727129_at) / RFU TMEM200A (11744735_a_at) / Fold change /veh TMEM200A (11744735_a_at) / RFU CCDC152 (11751479_a_at) / Fold change /veh CCDC152 (11751479_a_at) / RFU FAM211A (11726209_a_at) / Fold change /veh FAM211A (11726209_a_at) / RFU RGS16 (11746705_a_at) / Fold change /veh RGS16 (11746705_a_at) / RFU VCAN (11755009_s_at) / Fold change /veh VCAN (11755009_s_at) / RFU RHOB (11743442_s_at) / Fold change /veh RHOB (11743442_s_at) / RFU RGS16 (11720943_a_at) / Fold change /veh RGS16 (11720943_a_at) / RFU RGS16 (11720944_at) / Fold change /veh RGS16 (11720944_at) / RFU, VPS4B / Fold change vs veh, VPS4B / RFU, CREB1 / Fold change vs veh, CREB1 / RFU, DNAJC13 / Fold change vs veh, DNAJC13 / RFU, GNAQ / Fold change vs veh, GNAQ / RFU, CDK5R1 / Fold change vs veh, CDK5R1 / RFU, ZRANB3 / Fold change vs veh, ZRANB3 / RFU, CUL4A / Fold change vs veh, CUL4A / RFU, CCNY / Fold change vs veh, CCNY / RFU, UFL1 / Fold change vs veh, UFL1 / RFU, COG3 / Fold change vs veh, COG3 / RFU, DIAPH2 / Fold change vs veh, DIAPH2 / RFU, SKA2 / Fold change vs veh, SKA2 / RFU, AFF3 / Fold change vs veh, AFF3 / RFU, LMF1 / Fold change vs veh, LMF1 / RFU, IPO11 / Fold change vs veh, IPO11 / RFU, DFFB / Fold change vs veh, DFFB / RFU, FOXP1 / Fold change vs veh, FOXP1 / RFU, CARD8 / Fold change vs veh, CARD8 / RFU, STRN3 / Fold change vs veh, STRN3 / RFU, ADK / Fold change vs veh, ADK / RFU, RASSF2 / Fold change vs veh, RASSF2 / RFU, WIPF1 / Fold change vs veh, WIPF1 / RFU, LARP1B / Fold change vs veh, LARP1B / RFU, RASA1 / Fold change vs veh, RASA1 / RFU, RB1 / Fold change vs veh, RB1 / RFU, PPFIA1 / Fold change vs veh, PPFIA1 / RFU, MAT2A / Fold change vs veh, MAT2A / RFU, CCT5 / Fold change vs veh, CCT5 / RFU, WDR92 / Fold change vs veh, WDR92 / RFU, CUX1 / Fold change vs veh, CUX1 / RFU, TTC7A / Fold change vs veh, TTC7A / RFU, TMEM135 / Fold change vs veh, TMEM135 / RFU, DEPTOR / Fold change vs veh, DEPTOR / RFU, CPM / Fold change vs veh, CPM / RFU, DNAJB6 / Fold change vs veh, DNAJB6 / RFU, CACNA2D3 / Fold change vs veh, CACNA2D3 / RFU, DTX4 / Fold change vs veh, DTX4 / RFU, TFCP2 / Fold change vs veh, TFCP2 / RFU, GMCL1 /// GMCL1P1 / Fold change vs veh, GMCL1 /// GMCL1P1 / RFU, AEBP2 / Fold change vs veh, AEBP2 / RFU, SNHG1 /// SNORD22 /// SNORD25 /// SNORD26 /// SNORD27 /// SNORD28 /// SNORD29 /// SNORD31 / Fold change vs veh, SNHG1 /// SNORD22 /// SNORD25 /// SNORD26 /// SNORD27 /// SNORD28 /// SNORD29 /// SNORD31 / Fold change (Aza/veh), C12orf56 (ProbeSet 11735607_a_at) / Fold change (ACY-1035/veh), C12orf56 (ProbeSet 11735607_a_at) / Fold change (Aza/veh), FGFR1OP (ProbeSet 11751329_s_at) / Fold change (ACY-1035/veh), FGFR1OP (ProbeSet 11751329_s_at) / Fold change (Aza/veh), VPS36 (ProbeSet 11739960_a_at) / Fold change (ACY-1035/veh), VPS36 (ProbeSet 11739960_a_at) / RFU SYPL1 (11715823_x_at) / Fold change /veh SYPL1 (11715823_x_at) / RFU IGFBP7 (11715501_s_at) / Fold change /veh IGFBP7 (11715501_s_at) / RFU REEP3 (11722064_at) / Fold change /veh REEP3 (11722064_at) / RFU IGLL1 (11728026_x_at) / Fold change /veh IGLL1 (11728026_x_at): dose or concentration left out as unconfirmed. The settings on record: ProbeSet 11727545_at; LIST B.

As for `Nc1ccc(-c2cccs2)cc1NC(=O)c1ccc2c(c1)cc(C1CC1)n2CCN1CCOCC1` [ACY-1035], the “RFU, PANK3” value is listed as 81.04 RFU.
